# Source: patent US20260314597A1, “A NOVEL APPROACH TO INTERFERE IN THE PHENYLPROPANOID BIOSYNTHETIC PATHWAY TO REDUCE PINK-RIB DISORDER IN FRESH LETTUCE” (University of Florida Research Foundation, Inc., priority 2022, published 2026)
# “Also recorded” adds a separate entry of the source. Read-outs that look alike come from different tables or passages of the source.
# What was measured:
# [1] = test system: polyphenol oxidase (PPO); assay: PPO activity in treated wounded midribs; type: biochemical, lettuce (iceberg, Romaine); details: 5 d at 5° C.; for PPO activity: L-cysteine 4.1 mM or melatonin 4.3 mM; for effect on PPO activity: iceberg and Romaine
# Text: (§1) In all tests, experimental setup began immediately upon arrival to the laboratory. 90 outer leaves were randomly selected from 18 to 22 lettuce heads that met commercial and damage-free quality standards. A midrib segment (12.5 cm) was excised from the center of each leaf and excess leaf blade tissue was trimmed parallel to the midrib. This procedure was adapted from the wounding procedure of Cantwell (2016). Each midrib was then partially sliced transversally at 1.3-cm increments along the midrib. Midribs (n=15) were immediately immersed for 30 s in one of five treatment solutions: deionized water (wounded control), L-cysteine (4.1 mM), naringenin (1.8 mM) with 20% dimethyl sulfoxide (DMSO), serotonin (2.8 or 5.7 mM) or melatonin (4.3 mM) with 0.50% DMSO. Immediately following immersion, the midribs for each treatment were patted dry using paper towels and placed (n=5) in a breathable, high-density polyethylene bag (n=3) (Narrow Profile Produce Bags [14×18 inches] Model No. S-19156, Uline®, Pleasant Prairie, WI). Unwounded control midribs were stored in the same manner. To allow for direct comparison, each cut site on each midrib was assigned an initial discoloration value on day 1 based on the coloration of the rib. Samples were stored at 5° C. with 95-98% relative humidity (RH) for 5 d, simulating commercial storage.
# PPO activity was prepared and determined as reported by Teng et al. (2019) with slight modifications. Lettuce samples (300 mg) were homogenized in 150% (w/v) chilled phosphate buffer (pH 6.2, 0.05 M). Following chilling of test tubes with samples in an ice bath, samples were centrifuged at 9660×g for 10 min at 4° C. The increase in absorbance was measured every 3 s for 1 min. The slope of the linear portion of the time curve was calculated. One unit (U) of PPO activity was defined as an increase in OD410 of 0.1 unit within 1 min.
# The imaging data (a* value), enzyme activity (PAL and PPO), and metabolite (chlorogenic acid) results were expressed as mean±standard error and analyzed by lettuce type (iceberg or Romaine). For imaging data, an unpaired t-test was used to identify differences within a treatment throughout storage and among treatment groups at each time point. Treatment groups were defined as wounded, unwounded, L-cysteine, and melatonin. […] Analyses of variance were performed for PAL, PPO, and metabolite analyses using SAS software (version 9.4; SAS Institute, Cary, NC) to identify differences among treatment groups. Differences among treatments groups were separated by Tukey's Honest Significant Difference (HSD) test with a confidence level of 95%. The correlation between visual rating and a* value was evaluated for significance via an F-test, from which the P-value of the correlation was calculated.
# [2] = test system: fresh-cut iceberg lettuce; details: cited from earlier work
# [3] = test system: fresh-cut cherimoya; details: L-cysteine 0.5% or 41.3 mM; 0° C.; cited from earlier work
# [4] = test system: PPO; details: role: inhibitor; L-cysteine; cited from earlier work
# [5] = test system: chlorogenic acid concentration in homogenized lettuce tissue; details: L-cysteine; 24 h at 25° C.; cited from earlier work
# [6] = test system: PPO; details: role: inhibitor; L-cysteine 1% or 82.5 mM; after 2 d and up to 8 d at 1° C.; cited from earlier work
# [7] = test system: PPO; details: melatonin 0.1 mM; after 2 d; cited from earlier work
# [8] = test system: metabolites in wounded Romaine lettuce midrib; assay: Untargeted LC-MS/MS metabolomics of melatonin-treated wounded midribs (Test 3); type: in vivo, lettuce (Romaine 'Manatee')
# Method: For Test 1, the evaluations for pink rib development, protein quantification, and enzyme activity were conducted with Romaine and iceberg lettuce heads (36 heads per type; cultivars unknown) purchased (February 2020) upon arrival at a local grocery store in Gainesville, FL, and immediately transported to the Postharvest Horticulture Laboratory at the University of Florida in Gainesville, FL. For Test 2, metabolite extraction and detection were conducted with commercially grown, harvested, and cooled Romaine (‘Tall Guzmaine’) and iceberg (‘Chosen’) lettuce (December 2020) grown in Belle Glade, FL. For Test 3, untargeted metabolomics was performed using commercially grown, harvested, and cooled Romaine (‘Manatee’) lettuce grown in Belle Glade, FL (April 2021). To keep the lettuce head samples cool while preventing freeze damage during transport, a 3- to 6-inch layer of crushed ice was placed on the bottom of each 114-L cooler. A piece of waxed, corrugated fiberboard was placed on top of the ice prior to packing with the lettuce samples for transport the same day to the Postharvest Horticulture Laboratory in Gainesville (approximately 4 h distant).
# as §1
# Unwounded, wounded, and compound-treated wounded midrib samples were collected for untargeted metabolite analysis to identify global metabolite changes in response to melatonin application and targeted metabolite analysis to quantify chlorogenic acid a major caffeoyl compound in lettuce. For both targeted and untargeted metabolite analyses, fresh samples (500-800 mg) of the midribs from each treatment (n=3) were weighed, then immediately frozen in liquid nitrogen and stored at −80° C. for subsequent metabolite extraction. Frozen samples were extracted with a 50% methanol extraction solution containing a 1:1 (v:v) of methanol with deionized water. Samples were completely submerged in a 1:1.5 (w:v) of the sample weight (mg) to extraction solution volume (μL), respectively, and incubated at 65° C. for 90 min and then centrifuged at 9660×g for 10 min (MC-12 High Speed Micro Centrifuge, Benchmark Scientific, Edison, NJ). The supernatant was transferred to a new tube and filtered with a 0.45 μm filter (Choice, Thermo Scientific, Wilmington, DE). An aliquot of 400 μL was vacuum-dried.
# For untargeted metabolite analysis, vacuum-dried samples were resuspended into 100 μL of 50% methanol solution containing an internal standard umbelliferon (18 μg mL^−1) and vortexed for 1 min. After centrifugation at 13,000×g for 15 min, the solutions were transferred to sample inserts and analyzed. […]
# [9] = test system: loquat; details: melatonin; 25 d storage at 4° C.; cited from earlier work
# [10] = test system: pear flesh; details: melatonin 0.1 mM, cited from earlier work
# [11] = test system: key enzymes in the melatonin biosynthesis pathway; details: strawberry; cited from earlier work
smiles,measurement,setting,value
N[C@@H](CS)C(=O)O [L-cysteine],PPO activity,"[1]; Romaine, wounded control 5.1",6.4 U
same,effect on PPO activity,[1],no significant differences in PPO activity; also recorded: no effect on PPO activity; also recorded: neither PPO activity nor pink rib expression were reduced
same,PPO activity,"[1]; iceberg, wounded control 1.7",2.6 U
same,reduction of discoloration of midrib surface area,"[2]; L-cysteine 8.3 mM, 6 d at 8° C., vs control",greater than 80%
same,delay of pink rib development,"[2]; L-cysteine 0.1% or 8.3 mM, 8° C., untreated discolored after 2 d",6 days
same,"pink rib development, share of midrib surface area","[2]; L-cysteine 0.1% or 8.3 mM, 6 d at 8° C.",< 20 % of the midrib surface area
same,delay of pulp browning,[3],up to 12 d
same,PPO activity,[4],inhibited PPO activity
same,chlorogenic acid concentration,[5],reduced chlorogenic acid concentration
same,PPO activity,[6],significantly declined
COc1ccc2[nH]cc(CCNC(C)=O)c2c1 [melatonin],PPO activity,"[1]; Romaine, wounded control 5.1",6.2 U
same,effect on PPO activity,[1],no significant differences in PPO activity; also recorded: no effect on PPO activity; also recorded: neither enzyme activity (PAL or PPO) nor chlorogenic acid concentration were impacted; also recorded: did not significantly affect PAL or PPO enzyme activities
same,PPO activity,"[1]; iceberg, wounded control 1.7",2.6 U
same,PPO activity,[7],significantly lower
same,effect on wounding-related metabolite changes,"[8]; Romaine, wounded midrib",reduces overall metabolite changes in wounded lettuce midrib; also recorded: substantially affected wounding-related metabolite changes
same,"chlorogenic acid abundance, melatonin-treated vs wounded","[8]; Romaine, LC/MS",remained similar
same,number of wounding-diminished compounds increased with melatonin,[8]; of 25 diminished compounds,16 compounds
same,number of wounding-diminished compounds remaining decreased,"[8]; of 25 diminished compounds, vs untreated wounded samples",9 compounds
same,number of wounding-accumulated compounds reduced in abundance upon melatonin,[8]; of 68 accumulated compounds,64 compounds
same,number of wounding-accumulated compounds that maintained high abundancy,[8]; of 68 accumulated compounds,four
same,chlorogenic acid concentration,[9],increased
same,quality and lignification,[9],maintaining quality and delaying lignification
same,total phenolic content,[10]; after 4 d at 4° C.,higher
same,inhibition of browning,"[10]; pear flesh, 8 d at 4° C.",no inhibition of browning
same,key enzymes in the melatonin biosynthesis pathway,[11],Upregulation
